{"source": "patent US20180221336A1", "about": "“DOSE SPARING KETOROLAC FORMULATIONS AND METHODS AND DEVICES FOR USE WITH SAME” (SteadyMed, Ltd., priority 2017, published 2018)", "key": {"[1]": {"test": "Safety assessments (adverse events, vital signs, ECG, injection/infusion site) in the crossover study in healthy subjects", "description": "Twelve (12) subjects were randomized to receive a total daily dose of 120 mg Ketorolac tromethamine (Ketorolac Tromethamine Injection, USP 30 mg/mL, manufactured by Hospira Inc., Lot No.: 51600LL) administered as either: (Treatment A) one continuous SC infusion of 4 mL to the abdomen over 24 hours at a steady rate of 5 mg/hr (0.167 mL/hr), or (Treatment B) four IM bolus injections of 30 mg (1 mL) to alternating gluteus maximus muscle every 6 hours. For the continuous SC infusion, the MedFusion 3500 syringe pump was assembled with Animas Inset Infusion Set 23 inch 6 mm 10/box Grey (100-182-00), B-D Luer-Lok Syringe 5 mL and B-D 20 G 1 inch needle (Becton Dickinson). The treatments were separated by a washout period of ≥4 days.\nAll subjects underwent pre-dose (each period) and post-study assessments including physical examinations, routine laboratory tests, vital signs, and 12-lead electrocardiograms (ECGs). Alcohol and drug screen were conducted before each dosing period. All subjects were between 19 and 55 years old with a body mass index (BMI) between 18.5 and 30.0 kg/m2. Subjects had to refrain from the use of any prescription medications including over-the-counter products, herbal products or vitamin supplement within 14 days of dosing."}, "[2]": {"test": "Simulation of plasma Ketorolac concentrations with the MMSPK population pharmacokinetic model (NONMEM)", "set-up": "species or system human", "conditions": "population PK model parameter estimate", "excerpt": "A modified version of the Mandema-Stanski published model for Ketorolac (termed the Modified Mandema-Stanski PK model, or the MMSPK Model) was developed in steps; a base model development step for description of structural components of the model followed by a covariate analysis. For the latter the base model output was used to conduct a graphical evaluation of the covariates at first. A full model including all relevant covariate effects (e.g. each covariate-parameter relationship which was significant during single covariate model testing was included in the full model) was then developed. A final model was chosen by retaining only the statistically significant covariate effects. The parameters in the population models were estimated using the NONMEM software program (version 7.3). The stochastic approximation estimation method (SAEM) was used for estimation. A visual predictive check (VPC) was conducted for the model using all data.\nSimulations: Once the model was qualified, stochastic simulations were conducted to assess the expected range of concentrations following several dose regimens. […]\nFor each simulation scenario 800 subjects were simulated. […] The simulation outputs were assessed graphically and summaries of key metrics (see Table 1) were summarized and tabled. […]"}, "[3]": {"conditions": "for plasma Ketorolac concentration (predose Ctrough), Geometric LSM: Treatment B four IM bolus injections every 6 hours", "description": "(§1) Twelve (12) subjects were randomized to receive a total daily dose of 120 mg Ketorolac tromethamine (Ketorolac Tromethamine Injection, USP 30 mg/mL, manufactured by Hospira Inc., Lot No.: 51600LL) administered as either: (Treatment A) one continuous SC infusion of 4 mL to the abdomen over 24 hours at a steady rate of 5 mg/hr (0.167 mL/hr), or (Treatment B) four IM bolus injections of 30 mg (1 mL) to alternating gluteus maximus muscle every 6 hours. […] The treatments were separated by a washout period of ≥4 days. The total daily dose of 120 mg Ketorolac tromethamine administered as 4×30 mg/mL IM bolus injections is a recommended treatment for subjects under 65 years of age according to the product labeling.\n(§2) Blood samples for the determination of plasma Ketorolac following continuous SC infusion (Treatment A) were collected at the following time points: pre-dose (0 hour), 0.25, 0.5, 1, 1.5, 2, 4, 6, 8, 10, 12, 14, 16, 18, 20, 22, 23, 24 (2 blood samples were collected at the 24 hour time point; 1 immediately prior to the end of infusion and 1 immediately following end of infusion), 24.167, 24.33, 24.5, 25, 26, 28, 30, 32, 36, and at 48 hours post-dose. The time for post-dose blood collection are expressed relative to the start of infusion.\n(§3) Blood samples for the determination of plasma Ketorolac following IM injections (Treatment B) were collected at the following time points: pre-dose (0 hour), 0.167, 0.25, 0.5, 0.75, 1, 1.25, 1.5, 2, 3, 4, 6 (pre-dose), 6.25, 6.5, 6.75, 7, 8, 10, 12 (pre-dose), 12.25, 12.75, 13, 14, 16, 18 (pre-dose), 18.25, 18.5, 18.75, 19, 20, 22, 24, 28, 32, and at 48 hours post-dose. The time for post-dose blood collection are expressed relative to the first IM injection.\n(§4) Ketorolac plasma concentrations were determined using a validated liquid chromatographic tandem mass spectrometry (LC-MS/MS) method, with a lower limit of quantitation (LLOQ) of 10.0 ng/mL9. The validated plasma Ketorolac concentration range was 10.0 to 5000 ng/mL. Assay performance was monitored using quality control (QC) samples at concentrations of 30.0 ng/mL, 200 ng/mL, and 3800 ng/mL; the % CV for the QCs ranged from 1.3% to 15.1% and accuracy was 91.6-102.5%.\n(§5) Non-compartmental PK parameters were calculated from Ketorolac concentrations-time data in plasma using Phoenix® WinNonlin® Professional (Versions 6.3; Pharsight, Mountain View, Calif.). […] AUC0-inf was calculated as the sum AUC0-last plus the ratio of the last measurable plasma concentration (Clast) to kel; AUC0-last, AUC0-24, and AUCtau were calculated by the linear trapezoidal summation method; AUCext was calculated as 1-AUC0-last/AUC0-inf multiplied by 100, Cmax, Ctrough, tmax were reported as observed values; Cavg was calculated as AUCtau divided by 6 hours for the IM administration; Css was calculated as the average of the concentrations from the time steady-state was reached until the end of SC infusion; CL/F was calculated as dose/AUC0-inf (for SC administration) or dose/AUCtau (for IM administration); Vz/F was calculated as (CL/F)/kel); kel was calculated by linear least-square regression analysis using the maximum number of points in the terminal log-linear phase (using 3 or more non-zero plasma concentrations); t½ was calculated as ln(2)/kel.\n(§6) Statistical analyses were conducted to compare Ketorolac AUC0 24, AUC0 last, and Cmax following continuous SC infusion and repeat IM bolus injections. A SAS® mixed model procedure was performed on the natural log (ln)-transformed PK parameters."}, "clinical": {"test": "clinical", "conditions": "human, plasma", "description": "as §1, §2, §3, §4, §5, §6"}, "[4]": {"conditions": "oral KT; literature value used in simulations; cited from earlier work"}, "[5]": {"conditions": "Treatment A (Test, N = 11): continuous SC infusion over 24 hours"}, "[6]": {"conditions": "Treatment A versus Treatment B, 100 * (test/reference)"}, "[7]": {"conditions": "Treatment A: 120 mg continuous SC infusion over 24 hours, N = 11, geom. mean (geom. CV %)"}, "[8]": {"conditions": "Treatment A: 120 mg continuous SC infusion over 24 hours, N = 11, mean ± SD"}, "[9]": {"conditions": "Treatment A, individual spline (quadratic plateau) regression, N 11"}, "[10]": {"conditions": "Treatment A, individual spline (quadratic plateau) regression, N 11, listed as Ketorolac tromethamine"}, "[11]": {"conditions": "Treatment B (Reference, N = 12): four IM bolus injections of 30 mg every 6 hours"}}, "note": "Read-outs that look alike come from different tables or passages of the source."}
{"smiles": "O=C(c1ccccc1)c1ccc2n1CCC2C(=O)O", "note": "(racemic) [Ketorolac, (±)-5-benzoyl-2,3-dihydro-1H-pyrrolizine-1-carboxylic acid, compound with 2-amino-2-(hydroxymethyl)-1,3-propanediol]", "values": [{"measurement": "infusion site adverse event", "setting": "[1]; Treatment A, 13 minutes following completion of the 24-hour infusion, resolved in approximately 2 days, possibly related to study drug", "result": "One subject experienced mild infusion site pain"}, {"measurement": "injection site adverse event", "setting": "[1]; Treatment B, approximately 6.5 hours after the 4th IM injection, resolved in 15 days, not related to study drug", "result": "Another subject experienced mild injection site hemorrhage"}, {"measurement": "subjects experiencing TEAEs following each treatment arm", "setting": "[1]; each of Treatment A and Treatment B", "result": 2, "unit": "subjects"}, {"measurement": "safety and tolerability", "setting": "[1]; total dose of 120 mg via continuous SC infusion", "result": "safe and well tolerated"}, {"measurement": "vital sign, ECG, or injection/infusion site reaction results", "setting": "[1]; whole study", "result": "no clinically significant trends"}, {"measurement": "subjects experiencing TEAEs", "setting": "[1]; whole study, 12 subjects", "result": "4 (33%) subjects"}, {"measurement": "deaths or serious adverse events (SAEs)", "setting": "[1]; whole study, both treatments", "result": "no deaths or serious adverse events (SAEs)"}, {"measurement": "number of mild treatment emergent adverse events (TEAEs)", "setting": "[1]; whole study, both treatments", "result": 7}, {"measurement": "CL estimate (MMSPK model)", "setting": "[2]", "result": 2.92, "unit": "L/h"}, {"measurement": "estimated Ka for IM absorption (MMSPK model)", "setting": "[2]", "result": 11.6, "unit": "h⁻¹"}, {"measurement": "AUC0-24 Geometric LSM", "setting": "[3]; [5]", "result": 21510, "unit": "ng·h/mL"}, {"measurement": "AUC0-last Geometric LSM", "setting": "[3]; [5]", "result": 28260, "unit": "ng·h/mL"}, {"measurement": "overall Tss (time to steady-state)", "setting": "[3]; Treatment A SC infusion, Helmert contrast", "result": 18, "unit": "h"}, {"measurement": "overall exposure (AUC0-24 and AUC0-last), SC infusion compared with IM bolus injections", "setting": "[3]; Treatment A versus Treatment B", "result": "similar"}, {"measurement": "Cmax lower following continuous SC infusion compared to 4 IM bolus injections", "setting": "[3]; Treatment A versus Treatment B, 120 mg total daily dose", "result": 40, "unit": "%"}, {"measurement": "AUC0-24 Geometric Mean Ratio", "setting": "[3]; [6]", "result": 91.23, "unit": "%"}, {"measurement": "AUC0-last Geometric Mean Ratio", "setting": "[3]; [6]", "result": 101.53, "unit": "%"}, {"measurement": "Cmax—all Geometric Mean Ratio", "setting": "[3]; [6]", "result": 59.86, "unit": "%"}, {"measurement": "AUC0-last", "setting": "[3]; [7]", "result": "28.48 (30.9) μg * hr/mL"}, {"measurement": "Cmax—all", "setting": "[3]; [7]", "result": "1.344 (25.6) μg/mL"}, {"measurement": "AUC%extrap", "setting": "[3]; [8]", "result": "1.96 ± 1.2860", "unit": "%"}, {"measurement": "Css", "setting": "[3]; [8]", "result": "1238 ± 299.6", "unit": "ng/mL"}, {"measurement": "Kel", "setting": "[3]; Treatment A: 120 mg continuous SC infusion over 24 hours, mean ± SD", "result": "0.1014 ± 0.01213", "unit": "h⁻¹"}, {"measurement": "CL/F", "setting": "[3]; Treatment A: 120 mg continuous SC infusion over 24 hours, mean ± SD, listed as Ketorolac tromethamine", "result": "2.924 ± 0.9799", "unit": "L/h"}, {"measurement": "Plateau Concentration, Mean (SD)", "setting": "[3]; [9]", "result": "1053 (234.5) ng/mL"}, {"measurement": "Plateau Concentration, Median (Min, Max)", "setting": "[3]; [9]", "result": 1084, "unit": "ng/mL"}, {"measurement": "Time to Steady-State, Mean (SD)", "setting": "[3]; [9]", "result": "6.30 (4.17) hr"}, {"measurement": "Time to Steady-State, Median (Min, Max)", "setting": "[3]; [9]", "result": 4, "unit": "h"}, {"measurement": "Plateau Concentration, Median (Min, Max)", "setting": "[3]; [10]", "result": "1084 (572.4, 1426) ng/mL"}, {"measurement": "Time to Steady-State, Median (Min, Max)", "setting": "[3]; [10]", "result": "3.68 (1.98, 13.63) hr"}, {"measurement": "AUC0-24 Geometric LSM", "setting": "[3]; [11]", "result": 23580, "unit": "ng·h/mL"}, {"measurement": "AUC0-last Geometric LSM", "setting": "[3]; [11]", "result": 27830, "unit": "ng·h/mL"}, {"measurement": "plasma Ketorolac concentration (predose Ctrough), Geometric LSM", "setting": "[3]; Hour 6", "result": 302.545}, {"measurement": "plasma Ketorolac concentration (predose Ctrough), Geometric LSM", "setting": "[3]; Hour 12", "result": 368.216}, {"measurement": "plasma Ketorolac concentration (predose Ctrough), Geometric LSM", "setting": "[3]; Hour 18", "result": 432.393}, {"measurement": "plasma Ketorolac concentration (predose Ctrough), Geometric LSM", "setting": "[3]; Hour 24", "result": 564.178}, {"measurement": "Ctrough (LSM) at the highest", "setting": "[3]; following IM injections (Treatment B)", "result": 564.2, "unit": "ng/mL"}, {"measurement": "Individual Tss (spline method), range", "setting": "[3]; following SC infusion (Treatment A)", "result": "2.0 to 14", "unit": "h"}, {"measurement": "geometric LSM Css", "setting": "[3]; following SC infusion (Treatment A), Helmert contrast", "result": 1160, "unit": "ng/mL"}, {"measurement": "half-life", "setting": "clinical; 120 mg", "result": "~7", "unit": "h"}, {"measurement": "AUC", "setting": "clinical; im, 30 mg", "result": 6810, "unit": "ng·h/mL"}, {"measurement": "AUC(0-t)", "setting": "clinical; im, 30 mg", "result": 23600, "unit": "ng·h/mL"}, {"measurement": "Cmax", "setting": "clinical; im, 30 mg", "result": 2240, "unit": "ng/mL"}, {"measurement": "Tmax", "setting": "clinical; im, 30 mg", "result": 9.25, "unit": "h"}, {"measurement": "Vd/F", "setting": "clinical; im, 30 mg", "result": "30.3 ± 7.69", "unit": "L"}, {"measurement": "half-life", "setting": "clinical; im, 30 mg", "result": "7.02 ± 1.44", "unit": "h"}, {"measurement": "AUC(0-inf)", "setting": "clinical; sc, 120 mg", "result": 29100, "unit": "ng·h/mL"}, {"measurement": "AUC(0-t)", "setting": "clinical; sc, 120 mg", "result": 21500, "unit": "ng·h/mL"}, {"measurement": "Cmax", "setting": "clinical; sc, 120 mg", "result": 1340, "unit": "ng/mL"}, {"measurement": "Tmax", "setting": "clinical; sc, 120 mg", "result": 23, "unit": "h"}, {"measurement": "Vd/F", "setting": "clinical; sc, 120 mg", "result": "29.1 ± 10.9", "unit": "L"}, {"measurement": "concentration at 4 h", "setting": "clinical; sc, 120 mg", "result": 617, "unit": "ng/mL"}, {"measurement": "concentration at 6 h", "setting": "clinical; sc, 120 mg", "result": 718, "unit": "ng/mL"}, {"measurement": "concentration at 8 h", "setting": "clinical; sc, 120 mg", "result": 838, "unit": "ng/mL"}, {"measurement": "concentration at 10 h", "setting": "clinical; sc, 120 mg", "result": 894, "unit": "ng/mL"}, {"measurement": "concentration at 12 h", "setting": "clinical; sc, 120 mg", "result": 946, "unit": "ng/mL"}, {"measurement": "concentration at 14 h", "setting": "clinical; sc, 120 mg", "result": 1020, "unit": "ng/mL"}, {"measurement": "concentration at 16 h", "setting": "clinical; sc, 120 mg", "result": 1050, "unit": "ng/mL"}, {"measurement": "concentration at 18 h", "setting": "clinical; sc, 120 mg", "result": 1160, "unit": "ng/mL"}, {"measurement": "concentration at 20 h", "setting": "clinical; sc, 120 mg", "result": 1210, "unit": "ng/mL"}, {"measurement": "concentration at 22 h", "setting": "clinical; sc, 120 mg", "result": 1200, "unit": "ng/mL"}, {"measurement": "concentration at 23 h", "setting": "clinical; sc, 120 mg", "result": 1230, "unit": "ng/mL"}, {"measurement": "concentration at 24 h", "setting": "clinical; sc, 120 mg", "result": 1170, "unit": "ng/mL"}, {"measurement": "half-life", "setting": "clinical; sc, 120 mg", "result": "6.93 ± 0.84", "unit": "h"}, {"measurement": "Ka", "setting": "[4]", "result": 11, "unit": "h⁻¹"}, {"measurement": "absorption lag time", "setting": "[4]", "result": 0.2, "unit": "h"}]}
